Patent EP2998294A1, “Naphthyl sulfonamide phenyl derivatives as KEAP-1 modulators for the treatment of diabetes, obesity, dyslipidemia and related disorders” (SANOFI, priority 2014, dated 2016)

Target: T1, human Keap1 kelch domain (amino acids Ala321-Thr609) (Homo sapiens, UniProt Q14145)
T1 construct: human Keap1 kelch domain (amino acids Ala321-Thr609)
Assay: Keap1-Nrf2 peptide binding assay (fluorescence polarisation)
Conditions: binding of Keap1 kelch domain (20 nM) to fluorescently labeled Nrf2 peptide (50 nM)
Method: A fluorescence polarisation assay was used to measure binding of the human Keap1 kelch domain (amino acids Ala321-Thr609) to a fluorescently labeled peptide containing a Keap1 binding site of human Nrf2 (Alexa633-AFFAQLQLDEETGEFL; JPT Technologies, Berlin, Germany). Two microliters of test compound in reaction buffer (phosphate-buffered saline, 2 mM DL-dithiothreitol, 0.015 % (v/v) Brij-35) containing 6 % (v/v) DMSO were mixed with two microliters of the Keap1 kelch domain in reaction buffer in a black 384-well small volume microtiter plate and incubated at ambient temperature for 15 minutes. Thereafter, two microliters were added of the fluorescently labeled Nrf2 peptide in reaction buffer, and the mixture was incubated for a further 30 minutes at ambient temperature. Final concentrations of the Keap1 kelch domain and the fluorescently labeled Nrf2 peptide were 20 nM and 50 nM, respectively.
Fluorescence polarization (FP) was measured at excitation and emission wavelengths of 635 nm and 660 nm, respectively. Positive controls for binding (two microliters of reaction buffer containing 6 % (v/v) DMSO instead of test compound in the same buffer) and negative controls (as positive controls, but without Keap1 kelch domain) were included on each microtiter plate. Data were expressed as percent-inhibition values: percentinhibition = 100⋅(1-(|FPcompound-FPnegative controle|)/(|FPpositive controle-FPnegative controle|)) [formula]
IC50 values were determined by testing different compound concentrations and fitting the resulting percent-inhibition values to the following equation using XLFit4: percentinhibition = A + (B-A)/(1 + (((IC50)/([Compound])))^D) [formula]
Parameter A was set to zero, pre-fit values for parameters B and D were set to 100 and 1, respectively.

T1 sequence (Q14145 321-609): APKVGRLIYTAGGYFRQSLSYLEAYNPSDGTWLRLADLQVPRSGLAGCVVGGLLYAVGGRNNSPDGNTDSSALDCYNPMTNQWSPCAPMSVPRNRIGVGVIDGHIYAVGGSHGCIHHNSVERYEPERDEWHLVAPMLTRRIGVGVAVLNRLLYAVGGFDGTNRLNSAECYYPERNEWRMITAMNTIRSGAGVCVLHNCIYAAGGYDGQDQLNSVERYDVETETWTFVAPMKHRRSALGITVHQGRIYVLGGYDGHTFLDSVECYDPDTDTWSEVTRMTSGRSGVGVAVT

Compound	IC50 [µM]
Cc1c(Cl)cccc1S(=O)(=O)Nc1ccc(-c2cccc(C(=O)O)c2)c2ccccc12 [Example 13, 3-[4-[(3-chloro-2-methylphenyl)sulfonylamino]-1-naphthyl]benzoic acid]	1.1
O=C(O)c1cccc(-c2ccc(NS(=O)(=O)c3ccc(Cl)cc3Cl)c3ccccc23)c1 [Example 15, 3-[4-[(2,4-dichlorophenyl)sulfonylamino]-1-naphthyl]benzoic acid]	1
O=C(O)c1cccc(-c2ccc(NS(=O)(=O)c3cc(Cl)c(Cl)s3)c3ccccc23)c1 [Example 19, 3-[4-[(4,5-dichloro-2-thienyl)sulfonylamino]-1-naphthyl]benzoic acid]	7
Cc1cccc(Cl)c1S(=O)(=O)Nc1ccc(-c2cccc(C(=O)O)c2)c2ccccc12 [Example 21, 3-[4-[(2-chloro-6-methylphenyl)sulfonylamino]-1-naphthyl]benzoic acid]	1.8
N#Cc1ccc(S(=O)(=O)Nc2ccc(-c3cccc(C(=O)O)c3)c3ccccc23)c(Cl)c1 [Example 33, 3-[4-[(2-chloro-4-cyanophenyl)sulfonylamino]-1-naphthyl]benzoic acid]	5.2
O=C(O)c1cccc(-c2ccc(NS(=O)(=O)c3cccc(Cl)c3Cl)c3ccccc23)c1 [Example 34, 3-[4-[(2,3-dichlorophenyl)sulfonylamino]-1-naphthyl]benzoic acid]	1.5
O=C(O)c1cccc(-c2ccc(NS(=O)(=O)c3ccc(F)cc3Cl)c3ccccc23)c1 [Example 35, 3-[4-[(2-chloro-4-fluorophenyl)sulfonylamino]-1-naphthyl]benzoic acid]	5.6

Same assay, conditions: binding of Keap1 kelch domain (20 nM) to fluorescently labeled Nrf2 peptide (50 nM); read-out: IC50

Compound	IC50 [µM]
Cc1cc(C)c(C)c(S(=O)(=O)Nc2ccc(-c3cccc(C(=O)O)c3)c3ccccc23)c1C [Example 1, 3-[4-[(2,3,5,6-tetramethyl-phenyl)-sulfonylamino]-1-naphthyl]benzoic acid]	0.2
COc1ccc(S(=O)(=O)Nc2ccc(-c3cccc(C(=O)O)c3)c3ccccc23)c(OC)c1 [Example 2, 3-[4-[(2,4-dimethoxyphenyl)sulfonylamino]-1-naphthyl]benzoic acid]	4.5
Cc1ccc(S(=O)(=O)Nc2ccc(-c3cccc(C(=O)O)c3)c3ccccc23)cc1 [Example 3, 3-[4-(p-tolylsulfonylamino)-1-naphthyl]benzoic acid]	2.1
Cc1cc(C)c(C)c(S(=O)(=O)Nc2ccc(-c3cccc(C(=O)O)c3F)c3ccccc23)c1C [Example 4, 2-fluoro-3-[4-[(2,3,5,6-tetramethylphenyl)sulfonylamino]-1-naphthyl]benzoic acid]	0.2
Cc1cc(C)c(C)c(S(=O)(=O)Nc2ccc(-c3cc(C(=O)O)ccc3F)c3ccccc23)c1C [Example 5, 4-fluoro-3-[4-[(2,3,5,6-tetramethylphenyl)sulfonylamino]-1-naphthyl]benzoic acid]	0.09
Cc1cc(C)c(C)c(S(=O)(=O)Nc2ccc(-c3ccc(F)c(C(=O)O)c3)c3ccccc23)c1C [Example 6, 2-fluoro-5-[4-[(2,3,5,6-tetramethylphenyl)sulfonylamino]-1-naphthyl]benzoic acid]	1.7
Cc1ccc2c(NS(=O)(=O)c3c(C)c(C)cc(C)c3C)ccc(-c3cccc(C(=O)O)c3)c2n1 [Example 7, 3-[2-methyl-5-[(2,3,5,6-tetramethylphenyl)sulfonylamino]-8-quinolyl]benzoic acid]	1.1
Cc1nc(-c2ccc(C(F)(F)F)cc2)sc1S(=O)(=O)Nc1ccc(-c2cccc(C(=O)O)c2F)c2ccccc12 [Example 8, 2-fluoro-3-[4-[[4-methyl-2-[4-(trifluoromethyl)phenyl]thiazol-5-yl]sulfonylamino]-1-naphthyl]benzoic acid]	5.2
Cc1nc(-c2ccc(C(F)(F)F)cc2)sc1S(=O)(=O)Nc1ccc(-c2cc(C(=O)O)ccc2F)c2ccccc12 [Example 9, 4-fluoro-3-[4-[[4-methyl-2-[4-(trifluoromethyl)phenyl]thiazol-5-yl]sulfonylamino]-1-naphthyl]benzoic acid]	5.8

Continued, values first:

IC50 [µM]	Compound
2.5	Cc1cc(C)c(C)c(S(=O)(=O)Nc2ccc(-c3cccc(C(=O)O)c3O)c3ccccc23)c1C [Example 10, 2-hydroxy-3-[4-[(2,3,5,6-tetramethylphenyl)sulfonylamino]-1-naphthyl]benzoic acid]
2.8	CC(=O)Nc1nc(C)c(S(=O)(=O)Nc2ccc(-c3cccc(C(=O)O)c3)c3ccccc23)s1 [Example 11, 3-[4-[(2-acetamido-4-methyl-thiazol-5-yl)sulfonylamino]-1-naphthyl]benzoic acid]
0.4	Cc1nn(C)c(Cl)c1S(=O)(=O)Nc1ccc(-c2cccc(C(=O)O)c2)c2ccccc12 [Example 12, 3-[4-[(5-chloro-1,3-dimethyl-pyrazol-4-yl)sulfonylamino]-1-naphthyl]benzoic acid]
3.8	Cc1cc(S(=O)(=O)Nc2ccc(-c3cccc(C(=O)O)c3)c3ccccc23)c(Cl)cc1Cl [Example 14, 3-[4-[(2,4-dichloro-5-methylphenyl)sulfonylamino]-1-naphthyl]benzoic acid]
6.5	O=C(O)c1cccc(-c2ccc(NS(=O)(=O)c3c(F)cccc3F)c3ccccc23)c1 [Example 16, 3-[4-[(2,6-difluorophenyl)sulfonylamino]-1-naphthyl]benzoic acid]
1.6	Cc1c(S(=O)(=O)Nc2ccc(-c3cccc(C(=O)O)c3)c3ccccc23)sc2ccc(Cl)cc12 [Example 17, 3-[4-[(5-chloro-3-methyl-benzothiophen-2-yl)sulfonylamino]-1-naphthyl]benzoic acid]
5.8	COc1cc(C)ccc1S(=O)(=O)Nc1ccc(-c2cccc(C(=O)O)c2)c2ccccc12 [Example 18, 3-[4-[(2-methoxy-4-methylphenyl)sulfonylamino]-1-naphthyl]benzoic acid]
4	O=C(O)c1cccc(-c2ccc(NS(=O)(=O)c3ccc(-n4cccn4)cc3)c3ccccc23)c1 [Example 20, 3-[4-[(4-pyrazol-1-ylphenyl)sulfonylamino]-1-naphthyl]benzoic acid]
0.8	Cc1nn(C)c(C)c1S(=O)(=O)Nc1ccc(-c2cccc(C(=O)O)c2)c2ccccc12 [Example 22, 3-[4-[(1,3,5-trimethylpyrazol-4-yl)sulfonylamino]-1-naphthyl]benzoic acid]
4.5	Cc1c(S(=O)(=O)Nc2ccc(-c3cccc(C(=O)O)c3)c3ccccc23)cnn1-c1ccccc1 [Example 23, 3-[4-[(5-methyl-1-phenyl-pyrazol-4-yl)sulfonylamino]-1-naphthyl]benzoic acid]
4.6	Cc1nc(C)c(S(=O)(=O)Nc2ccc(-c3cccc(C(=O)O)c3)c3ccccc23)s1 [Example 24, 3-[4-[(2,4-dimethylthiazol-5-yl)sulfonylamino]-1-naphthyl]benzoic acid]
3	Cc1ccc2sc(S(=O)(=O)Nc3ccc(-c4cccc(C(=O)O)c4)c4ccccc34)cc2c1 [Example 25, 3-[4-[(5-methylbenzothiophen-2-yl)sulfonylamino]-1-naphthyl]benzoic acid]
2.5	O=C(O)c1cccc(-c2ccc(NS(=O)(=O)c3ccc(N4CCCC4=O)cc3)c3ccccc23)c1 [Example 26, 3-[4-[[4-(2-oxopyrrolidin-1-yl)phenyl]sulfonylamino]-1-naphthyl]benzoic acid]
3.6	CC(=O)N1c2ccc(S(=O)(=O)Nc3ccc(-c4cccc(C(=O)O)c4)c4ccccc34)cc2CC1C (stereo not drawn) [Example 27, 3-[4-[(1-acetyl-2-methyl-indolin-5-yl)sulfonylamino]-1-naphthyl]benzoic acid]
5.1	Cc1ccc(F)c(S(=O)(=O)Nc2ccc(-c3cccc(C(=O)O)c3)c3ccccc23)c1 [Example 28, 3-[4-[(2-fluoro-5-methylphenyl)sulfonylamino]-1-naphthyl]benzoic acid]
5.1	O=C(O)c1cccc(-c2ccc(NS(=O)(=O)c3ccc4[nH]c(=O)sc4c3)c3ccccc23)c1 [Example 29, 3-[4-[(2-oxo-3H-1,3-benzothiazol-6-yl)sulfonylamino]-1-naphthyl]benzoic acid]
4.3	CC(=O)N1CCCc2cc(S(=O)(=O)Nc3ccc(-c4cccc(C(=O)O)c4)c4ccccc34)ccc21 [Example 30, 3-[4-[(1-acetyl-3,4-dihydro-2H-quinolin-6-yl)sulfonylamino]-1-naphthyl]benzoic acid]
3.2	CC(=O)Nc1ccc(C)c(S(=O)(=O)Nc2ccc(-c3cccc(C(=O)O)c3)c3ccccc23)c1 [Example 31, 3-[4-[(5-acetamido-2-methylphenyl)sulfonylamino]-1-naphthyl]benzoic acid]
3.3	COc1ccc(F)c(S(=O)(=O)Nc2ccc(-c3cccc(C(=O)O)c3)c3ccccc23)c1 [Example 32, 3-[4-[(2-fluoro-5-methoxyphenyl)sulfonylamino]-1-naphthyl]benzoic acid]
4.2	O=C(O)c1cccc(-c2ccc(NS(=O)(=O)c3ccc(N4CCOCC4)nc3)c3ccccc23)c1 [Example 36, 3-[4-[(6-morpholino-3-pyridyl)sulfonylamino]-1-naphthyl]benzoic acid]
